These results are taken from article PMC12067741, “Inhibition of SOD1 trimerization is a novel drug target for ALS disease” (Translational Neurodegeneration, 2025).

“Also recorded” adds a separate entry of the source.

Series [1] concerns the target T1, SOD1-G147P (Homo sapiens, UniProt P00441, G148P).
T1 construct: expressed in transfected cells
The series is described as follows: SOD1 oligomerization induced by trimer stabilizer overexpression. Format: cell-based. How it is done: For SDS-PAGE, proteins were extracted from cells with the RIPA buffer (50 mmol/L Tris–Cl, pH 7.5, 150 mmol/L NaCl, 1% NP-40, 0.1% SDS and […]). To detect the oligomer status, the cells were harvested with the TNNI buffer (50 mmol/L Tris–Cl, pH 7.5, 150 mmol/L NaCl, 0.3% NP-40, 100 mmol/L iodoacetamide, protease inhibitor cocktails) and reacted with 0.04% glutaraldehyde (Glu) for 30 min, and then SDS-PAGE was performed using the pan-SOD1 antibody. Samples were separated via SDS-PAGE and transferred to PVDF membrane. Blotted membranes were blocked by 3% skim milk containing TBST buffer for 1 h and incubated with specific antibodies. The following primary antibodies were used: pan-SOD1 (GTX100554) from Genetex (Irvine, CA); misfolded SOD1-specific antibody (B8H10) from MediMabs (Montreal, Canada); Actin (sc-1616), GST (sc-138), and GFP (Green fluorescent protein; sc-8036) antibodies from Santa Cruz Biotechnology (Santa Cruz, CA); TDP-43 antibody (10782–2-AP) from Proteintech (Rosemont, IL); anti-FLAG (Sigma; F3165) from Sigma-Aldrich (St. Louis, MO). HRP-conjugated goat anti-mouse, goat anti-rabbit and mouse anti-goat antibodies (Pierce, Thermo Fisher Scientific, Inc., Rockford, IL) were used as secondary antibodies. The blots were detected using an ECL assay (Advansta) and images were acquired using the […] ImageQuant 800 (Cytiva) system and an X-Ray film detector. […]

Series [2] can be described thus: Metabolic stability in liver microsomes. To be noted: beagle dog liver microsomes. Format: in vitro ADME.
The conditions of series [3]: mouse, in vivo, iv, 1 mg/kg.
Series [4] has as its system SOD1^G93A−Tg mice. The series is described as follows: Efficacy of i.p. injection in SOD1G93A-Tg ALS mice. The format is in vivo. To be noted: for reduction of rotarod latency to fall at 16 weeks compared to 11 weeks: vehicle ~43%. As to the method:
To evaluate the therapeutic effect of PRG-A-04, SOD1^G93A−Tg mice received intraperitoneal injection of vehicle (DMSO, n = 6) or PRG-A-04 (20 mg/kg, n = 4; 50 mg/kg, n = 6) twice per week from 11 weeks for 6–8 weeks. WT mice (n = 5) served as negative littermates of the SOD1^G93A−Tg mice. WT mice were treated in the same conditions.
For histology analysis, SOD1^G93A−Tg mice received intraperitoneal injections starting from 11 weeks and sacrificed at 17 weeks (vehicle, n = 3; PRG-A-04 20 mg/kg, n = 2, 50 mg/kg, n = 2) and 19 weeks (vehicle, n = 2; PRG-A-04 50 mg/kg, n = 2). WT male mice (n = 5) were sacrificed at 17 weeks. Mice were sacrificed by i.p. (intraperitoneal) injection of avertin at a volume of 150–200 μL. The spinal cord was obtained and fixed in 4% paraformaldehyde for 48 h and embedded in paraffin blocks. The embedded tissues (cervical region of the spinal cord) were sectioned at 5 µm by Accu-Cut ® SRMTM 200 Rotary Microtome (Sakura Finetek, Torrance, CA) and transferred onto adhesive-coated slides (Marienfeld Laboratory Glassware, Lauda-Königshofen, Germany). After deparaffin and rehydration, the slides were stained with hematoxylin and eosin (H&E) to detect spinal cord neurons. In addition, immunohistochemistry (IHC) with antibodies for neuronal markers MAP2 (ab32454, Abcam, Cambridge, UK) and NeuN (ab177487, Abcam) as well as for SOD1 (GTX100554, Genetex, Irvine, CA) was performed. The intensity of MAP2 and NeuN was calculated with the Image J software (version 1.54p, National Institute of Mental Health, MD). For counting intensity, IHC images were divided using the “color deconvolution” function in Image J software and the DAB signal was quantified.
Age-matched WT mice were tested as positive control. […] Mouse movement was recorded.
PRG-A-04 (20 mg/kg or 50 mg/kg) was injected intraperitoneally (i.p., twice a week) in 11-week-old SOD1^G93A−Tg mice to verify its efficacy in vivo (Fig. S4a). […] We performed the rotarod test to monitor muscle strength.
11 weeks old mice were injected with 20 mg/kg and 50 mg/kg, twice per week for 6~8 weeks and checked the motility with rotarod test. To check the histology analysis, some mouse groups were sacrificed and the spinal cord was isolated at 16 weeks and 18 weeks. b, […]
(d) The 11 weeks old mice were injected with PRG-A-04 for 6 weeks and sacrificed at 16 weeks. The cervical spinal cord was stained with H&E. Scale bar; […]. (e) Representative images […]
The tissue lysates were harvest with TNNI buffer and incubation for 30 min then fixed with 0.04% glutaraldehyde (Glu) for 30min. Samples were separated using SDS-PAGE. Arrow indicates human SOD1(hSOD1- […]
MAP2 (e) and the number of NeuN positive cells (f) were counted with Image J software.

T1 sequence (P00441 whole entry G148P): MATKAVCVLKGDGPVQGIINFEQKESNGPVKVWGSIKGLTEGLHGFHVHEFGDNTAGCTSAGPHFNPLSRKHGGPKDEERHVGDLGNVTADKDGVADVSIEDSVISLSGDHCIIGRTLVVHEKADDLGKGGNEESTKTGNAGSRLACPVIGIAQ

As to `COc1cc(C=CCOC2Cc3cc4ccc(=O)oc4cc3OC2(C)C)ccc1[N+](=O)[O-]` (stereo not shown) [PRG-A-04], the “effect on SOD1 oligomerization caused by trimer-stabilizing mutant” value in series [1] is “reduced the SOD1 oligomerization”. Moreover, in series [2], the “extent of metabolism in liver microsomes” value is “moderately metabolized; also recorded: metabolized significantly”. Moreover, in series [3], the AUC0-inf worked out at 1857.00 ng·h/mL, the AUC0-last worked out at 1826.50 ng·h/mL, the “C0 (or) Cmax” value was 1272.33 ng/mL and the T1/2 is recorded as 4.12 h. In addition, the “reduction of rotarod latency to fall at 16 weeks compared to 11 weeks” value in series [4] (i.p. 20 mg/kg twice a week from 11 weeks (first of 'respectively')) was 14.4%. Besides, in series [4] (i.p. 50 mg/kg twice a week from 11 weeks (second of 'respectively')), the “reduction of rotarod latency to fall at 16 weeks compared to 11 weeks” value amounted to 20.1%. In addition, the “motor function in open field test” value in series [4] (i.p. 50 mg/kg, age of 18 weeks) was “significantly improved motor function”. Also, in series [4] (i.p. 20 and 50 mg/kg, immunohistochemistry), the “SOD1 inclusion bodies in spinal cord” value is recorded as “reduced SOD1 inclusion bodies”. Also, the “toxicity regarding body weight loss” value in series [4] (i.p. 20 or 50 mg/kg twice a week) is “no cytotoxicity regarding body weight loss”. For the same molecule, the “number of neurons in cervical region of the spinal cord” value in series [4] (i.p., histology at 16 weeks, versus vehicle) was “increased the number of neurons”. For the same molecule, the “insolubility and oligomerization of SOD1 in spinal cord” value in series [4] (i.p., western blotting of cervical spinal cord lysates) is “decrease of insolubility and oligomerization of SOD1”.
